# Results as given in publication PMC5351510 (Future Science OA, 2017).
# Where two headings read alike, the source gives them in different places.
# Assays:
# [1] = Equilibrium solubility studies (shaker, HPTLC); format: physicochemical; conditions: experimental, at 25°C, mean of three
# Procedure: Equilibrium solubility is the most vital physicochemical property that reflects the bioavailability of a compound. […] The equilibrated samples were centrifuged at 5000 r.p.m. (1398 × g) for 10 min to remove any undissolved drug and the supernatant was analyzed using HPTLC at a λmax of 262 nm. All the media were prepared according to the composition reported by Dressman and co-workers.
# [2] = at 45°C; cited from earlier work
# [3] = Determination of log D, aqueous phase pH 7.4; format: physicochemical; conditions: octanol / physiological buffer (aqueous phase at pH 7.4), experimental
# Excerpt: Log D, the logarithm of distribution constant or apparent partition, therefore, is a better descriptor of the lipophilicity of an ionizable compound that is likely to be charged at the physiological pH [26]. This can be determined in a similar manner to log P, but the aqueous phase, instead of being pure water, is adjusted to pH 7.4 using a physiological buffer:Equation 2 [drawing 3]
# [4] = In situ single pass intestinal perfusion studies; format: in vivo, Wistar rats; conditions: both sexes, Wistar, other: in situ single pass perfusion of the jejunum; experimental, rat jejunum, perfusion rate 0.2 ml/min
# Procedure: The in situ single pass intestinal perfusion studies were performed in a manner reported previously by our group in the past. Three unisex Wistar rats (250–280 g) were fasted for at least 24 h prior to the study, while water was provided ad libitum. The animals were procured from University Centre Animal House, after obtaining the requisite approval from Animals Institutional Committee, Chandigarh (PU/IAEC/S/14/104). Anesthesia was induced by an intraperitoneal injection of thiopental sodium in the dose of 50 mg/kg of the body weight of the rats. After making an incision in the abdomen, provisions for inlet and outlet were made at proximal part of the jejunum, 2–4 cm below the ligament of Trietz and about 10 cm distal to the first incision. […] Finally, 1.5 ml of perfusate was added to the ethereal extract and the concentration of Mgf in the mixture was determined using HPTLC technique at 254 nm by applying the principles of Analytical Quality by Design. The value of effective permeability (Peff) was subsequently calculated using Equation 3 [31].Equation 3 [drawing 4]
# where Q is the flow rate, Cin and Cout are the respective inlet and outlet concentrations, r is the radius of the intestine and l is the length of the intestine measured after completion of perfusion.
# [5] = cited from earlier work
# [6] = Partition coefficient (log P), shake-flask octanol/water; format: physicochemical; conditions: experimental, 25.0 ± 0.1°C
# Procedure: Lipophilicity is a molecular property of any compound that is vital to discern the extent of distribution in the body. The logarithm of octanol/water partition coefficient, in other words, log P, is the most extensively used parameter to quantify lipophilicity. The value of log P is a valuable predictor to determine the passive transport of drugs through the lipoid membranes of the human body. […] For this, first presaturation of the solvents (octanol and water) was conducted for 24 h. Then, Mgf in a concentration of 5 mg/100 ml was added to the equilibrated mixture. After separation of the equilibrated phases by centrifugation at 10,000 r.p.m. for 5 min, the concentration of the solute was determined in the aqueous phase using HPTLC at a λmax 262 nm for each sample:Equation 1 [drawing 2]
# [7] = target: T1, MDR1 transporters (Homo sapiens, UniProt P08183); test: P-gp efflux assay (multidrug resistance direct dye efflux kit), Rhodamine-123 dye; format: cell-based; conditions: experimental, Caco-2 cells
# T1 construct: overexpressed MDR1, MRP1 and BCRP membrane pumps on Caco-2 cells; endogenous in cells; host or cells: Caco-2 cells
# Procedure: Furthermore, the multidrug resistance directs dye efflux assay kit (Chemicon® International, CA, USA and Serologicals® Corporations, GA, USA) was employed, in which the Caco-2 cells were loaded with rhodamine 123 (Rh-123) and diethyloxacarbocyanine (DiOC2) dyes in the presence or absence of vinblastine. In order to access the functional activity of the inhibition of overexpressed MDR1, MRP1 and BCRP membrane pumps on Caco-2 cells in the presence of Mgf, the fluorescence intensity was measured in a Tecan fluorescence microplate reader (Tecan Ltd, Männedorf, Switzerland) at an excitation wavelength of 485 nm and an emission wavelength of 530 nm. For the purpose, Caco-2 cells in the concentration of 2.5 × 10^5 were incubated with Rh-123 alone and with vinblastine, and Rh-123-loaded Mgf at 37°C to access the inhibitory activity of Mgf on MDR1 transporters. Likewise, to estimate the ability of Mgf to act as a substrate for BCRP transportors, DiOC2 dye was employed. On the similar heels, Caco-2 cells (2.5 × 10^5) were incubated with DiOC2 alone and with vinblastine, and DiOC2-loaded Mgf at 37°C.
# [8] = test system: P-gp; conditions: cited from earlier work
# [9] = cited from earlier work; remark: listed apart in the source
# T1 sequence (P08183 whole entry): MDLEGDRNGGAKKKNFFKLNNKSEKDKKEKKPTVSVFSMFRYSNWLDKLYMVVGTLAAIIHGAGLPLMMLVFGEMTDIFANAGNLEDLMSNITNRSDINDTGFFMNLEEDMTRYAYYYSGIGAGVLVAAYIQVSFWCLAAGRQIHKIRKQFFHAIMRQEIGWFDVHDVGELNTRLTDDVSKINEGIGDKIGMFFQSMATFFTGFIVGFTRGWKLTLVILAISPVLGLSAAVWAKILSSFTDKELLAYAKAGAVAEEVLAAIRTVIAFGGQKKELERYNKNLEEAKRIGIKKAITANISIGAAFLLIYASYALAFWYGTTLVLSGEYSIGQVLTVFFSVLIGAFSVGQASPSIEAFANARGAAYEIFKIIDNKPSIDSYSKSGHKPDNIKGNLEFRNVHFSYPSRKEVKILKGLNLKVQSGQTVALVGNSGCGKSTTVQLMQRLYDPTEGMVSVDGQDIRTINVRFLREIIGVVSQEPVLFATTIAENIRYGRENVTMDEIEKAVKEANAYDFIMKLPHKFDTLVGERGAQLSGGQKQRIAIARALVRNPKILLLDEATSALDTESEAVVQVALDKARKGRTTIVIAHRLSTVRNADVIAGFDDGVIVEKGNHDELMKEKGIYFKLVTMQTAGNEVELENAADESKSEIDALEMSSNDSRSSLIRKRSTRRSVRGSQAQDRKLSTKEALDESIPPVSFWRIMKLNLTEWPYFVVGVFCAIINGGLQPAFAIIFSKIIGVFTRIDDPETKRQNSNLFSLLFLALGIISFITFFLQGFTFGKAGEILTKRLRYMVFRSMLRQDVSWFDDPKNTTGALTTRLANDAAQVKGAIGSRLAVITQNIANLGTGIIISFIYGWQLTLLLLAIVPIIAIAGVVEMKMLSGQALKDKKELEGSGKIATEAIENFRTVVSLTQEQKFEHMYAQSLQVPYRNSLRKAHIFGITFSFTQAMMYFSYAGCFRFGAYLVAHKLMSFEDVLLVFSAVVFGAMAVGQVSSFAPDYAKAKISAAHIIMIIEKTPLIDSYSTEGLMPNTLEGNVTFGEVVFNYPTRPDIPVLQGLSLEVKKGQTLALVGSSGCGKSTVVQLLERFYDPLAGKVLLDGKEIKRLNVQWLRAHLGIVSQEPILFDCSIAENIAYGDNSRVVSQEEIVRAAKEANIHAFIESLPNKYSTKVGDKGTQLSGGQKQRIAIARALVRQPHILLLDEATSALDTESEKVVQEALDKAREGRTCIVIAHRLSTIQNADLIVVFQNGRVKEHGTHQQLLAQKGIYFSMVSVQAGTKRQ
structure (smiles),measurement,setting,value
"O=c1c2cc(O)c(O)cc2oc2cc(O)c([C@@H]3O[C@H](CO)[C@@H](O)[C@H](O)[C@H]3O)c(O)c12 [mangiferin, (1S)-1,5-Anhydro-1-(1,3,6,7-tetrahydroxy-9-oxo-9H-xanthen-2-yl)-D-glucitol]",solubility at 72 h,"[1]; fasted-state simulated gastric fluid, read-out: Solubility in fasted-state simulated gastric fluid",140 µg/mL
same,solubility at 72 h,"[1]; fasted-state simulated intestinal fluid, fassif, thermodynamic from solid, read-out: Solubility in fasted-state simulated intestinal fluid",1480 µg/mL
same,solubility at 72 h,"[1]; fed-state simulated intestinal fluid, fessif, thermodynamic from solid, read-out: Solubility in fed-state simulated intestinal fluid",3980 µg/mL
same,solubility at 72 h,"[1]; thermodynamic from solid, water, read-out: Aqueous solubility",380 µg/mL
same,Aqueous solubility,[2],0.25 mg/ml at 45 °C
same,logD,[3],-0.79
same,effective permeability (Peff),[4],16 ×10⁻⁶ cm/s
same,log P,[5],-0.09 to -0.36
same,logP,[6],-0.65
same,P-gp substrate,[7],Yes
same,P-gp substrate,[8],Yes
same,AUC0–t rise in streptozotocin-induced diabetic rats compared with normal rats,[9]; plasma,2.35 fold
same,Cmax rise in streptozotocin-induced diabetic rats compared with normal rats,[9]; plasma,2.79 fold
same,Maximum plasma levels,"[9]; rats, oral",715.04 ± 600.14 ng/mL
same,Time of maximum plasma levels after oral intake,"[9]; rats, oral",0.72 h
